Laboratory results published in ChEMBL document CHEMBL5257031, “Drug-like Antagonists of P2Y Receptors-From Lead Identification to Drug Development” (J Med Chem, 2016).

Legend:
[1] = target: T1, P2Y purinoceptor 1 (Homo sapiens, UniProt P47900); assay: Inhibition of human P2Y1 assessed as inhibition constant
[2] = Antagonist activity at ATP gamma S induced mucin in Normal human bronchial epithelial cell; format: cell-based
[3] = Binding affinity to chimpanzee P2Y14 assessed as inhibition constant; set-up: species or system Pan troglodytes
[4] = Cmax in rat measured up to 24 hrs; format: ADME; set-up: time < 24 hrs; details: in vivo
[5] = Cmax in mouse measured up to 24 hrs; format: ADME; set-up: time < 24 hrs; details: in vivo
[6] = in vivo; details: mouse, po
[7] = Oral bioavailability in mouse; details: in vivo
[8] = Antagonist activity at human P2Y12 by aggregation assay
[9] = target: T2, P2Y purinoceptor 13 (Homo sapiens, UniProt Q9BPV8); assay: Antagonist activity at P2Y13 (unknown origin)
T2 sequence (Q9BPV8 whole entry): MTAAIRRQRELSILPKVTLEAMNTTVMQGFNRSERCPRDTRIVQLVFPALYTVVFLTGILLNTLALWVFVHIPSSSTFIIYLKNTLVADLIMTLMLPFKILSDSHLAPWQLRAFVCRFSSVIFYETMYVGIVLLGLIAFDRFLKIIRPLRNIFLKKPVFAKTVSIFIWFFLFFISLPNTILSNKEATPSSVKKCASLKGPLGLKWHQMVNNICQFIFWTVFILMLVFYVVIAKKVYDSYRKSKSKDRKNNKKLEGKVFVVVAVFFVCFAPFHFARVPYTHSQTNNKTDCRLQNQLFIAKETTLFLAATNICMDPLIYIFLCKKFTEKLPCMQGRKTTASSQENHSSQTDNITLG

[10] = target: T3, P2Y purinoceptor 12 (Homo sapiens, UniProt Q9H244); assay: Displacement of [3H]-2-MeS-ADP from human P2Y12 assessed as inhibition constant incubated for 30 mins
T3 sequence (Q9H244 whole entry): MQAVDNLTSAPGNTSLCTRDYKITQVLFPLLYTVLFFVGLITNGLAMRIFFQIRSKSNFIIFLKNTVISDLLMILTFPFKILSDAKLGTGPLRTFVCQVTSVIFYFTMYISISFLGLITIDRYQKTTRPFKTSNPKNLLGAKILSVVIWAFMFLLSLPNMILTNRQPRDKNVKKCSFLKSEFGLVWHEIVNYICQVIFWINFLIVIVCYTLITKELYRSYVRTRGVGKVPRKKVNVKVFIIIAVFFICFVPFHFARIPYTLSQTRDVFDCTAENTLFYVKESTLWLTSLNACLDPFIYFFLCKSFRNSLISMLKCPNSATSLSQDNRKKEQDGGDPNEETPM

[11] = Half life in C57BL/6 mouse 2 mg/kg, iv; format: ADME, organism-based; details: in vivo
[12] = Half life in C57BL/6 mouse 2 mg/kg, iv; details: in vivo
[13] = Oral bioavailability in C57BL/6 mouse at 50 mg/kg; details: in vivo
[14] = Antagonist activity at P2Y14 using UDP-Glc as substrate
[15] = target: T1, P2Y purinoceptor 1; assay: Agonist activity at human P2Y1
[16] = target: T3, P2Y purinoceptor 12; assay: Antagonist activity at human P2Y12
[17] = target: T2, P2Y purinoceptor 13; assay: Antagonist activity at human P2Y13
[18] = target: T4, P2Y purinoceptor 4 (Homo sapiens, UniProt P51582)
T4 sequence (P51582 whole entry): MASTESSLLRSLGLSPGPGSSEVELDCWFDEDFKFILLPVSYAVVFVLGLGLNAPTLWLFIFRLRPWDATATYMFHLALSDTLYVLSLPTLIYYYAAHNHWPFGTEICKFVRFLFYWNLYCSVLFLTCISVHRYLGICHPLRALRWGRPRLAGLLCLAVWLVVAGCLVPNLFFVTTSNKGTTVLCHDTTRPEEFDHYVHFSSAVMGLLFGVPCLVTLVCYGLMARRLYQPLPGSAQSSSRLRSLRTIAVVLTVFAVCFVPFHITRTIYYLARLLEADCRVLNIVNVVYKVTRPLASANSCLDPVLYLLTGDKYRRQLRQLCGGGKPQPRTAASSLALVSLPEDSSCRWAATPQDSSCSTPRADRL

[19] = target: P2Y purinoceptor 4 (Rattus norvegicus, UniProt O35811); assay: Agonist activity at rat P2Y4
Sequence of P2Y purinoceptor 4 (Rattus norvegicus, UniProt O35811) (O35811 whole entry): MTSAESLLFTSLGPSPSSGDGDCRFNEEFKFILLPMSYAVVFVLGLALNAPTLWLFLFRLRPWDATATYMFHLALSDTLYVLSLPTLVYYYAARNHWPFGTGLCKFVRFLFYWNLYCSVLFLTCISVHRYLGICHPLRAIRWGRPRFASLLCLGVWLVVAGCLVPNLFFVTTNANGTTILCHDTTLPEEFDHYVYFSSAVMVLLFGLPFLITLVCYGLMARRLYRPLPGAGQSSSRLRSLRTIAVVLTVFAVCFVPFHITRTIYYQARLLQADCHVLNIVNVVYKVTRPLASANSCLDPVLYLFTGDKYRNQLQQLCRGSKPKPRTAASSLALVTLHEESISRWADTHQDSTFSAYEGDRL

[20] = Clearance in rat; format: ADME; details: in vivo
[21] = Volume of distribution at steady state in rat; format: ADME; details: in vivo
[22] = Antagonist activity at human pA2 by FLIPR assay
[23] = target: P2Y purinoceptor 2 (Mus musculus, UniProt P35383); assay: Antagonist activity at mouse P2Y2
Sequence of P2Y purinoceptor 2 (P35383 whole entry): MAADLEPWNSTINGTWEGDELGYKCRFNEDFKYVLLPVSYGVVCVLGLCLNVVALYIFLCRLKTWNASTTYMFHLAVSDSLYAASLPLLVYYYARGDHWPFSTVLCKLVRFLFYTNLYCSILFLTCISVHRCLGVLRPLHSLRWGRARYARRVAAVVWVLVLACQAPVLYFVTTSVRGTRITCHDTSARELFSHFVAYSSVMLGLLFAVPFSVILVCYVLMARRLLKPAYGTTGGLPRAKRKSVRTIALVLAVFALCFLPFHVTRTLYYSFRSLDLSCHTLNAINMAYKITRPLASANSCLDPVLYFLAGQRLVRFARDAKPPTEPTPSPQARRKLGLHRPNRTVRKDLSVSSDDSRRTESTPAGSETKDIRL

[24] = target: P2Y purinoceptor 4 (Rattus norvegicus) (UniProt O35811); assay: Agonist activity at rat P2Y4 transfected in human 1321N1 cells at 100 uM relative to control; format: cell-based
Sequence of P2Y purinoceptor 4 (Rattus norvegicus) (O35811 whole entry): as the sequence (O35811 whole entry) above

[25] = target: T4, P2Y purinoceptor 4; assay: Agonist activity at human P2Y4 transfected in human 1321N1 cells at 100 uM relative to control; format: cell-based
[26] = target: T1, P2Y purinoceptor 1; assay: Inhibition of human P2Y1
[27] = target: T5, P2Y purinoceptor 14 (Homo sapiens, UniProt Q15391); assay: Antagonist activity at human P2Y14 expressed in CHO cells assessed as inhibition constant; format: cell-based
T5 sequence (Q15391 whole entry): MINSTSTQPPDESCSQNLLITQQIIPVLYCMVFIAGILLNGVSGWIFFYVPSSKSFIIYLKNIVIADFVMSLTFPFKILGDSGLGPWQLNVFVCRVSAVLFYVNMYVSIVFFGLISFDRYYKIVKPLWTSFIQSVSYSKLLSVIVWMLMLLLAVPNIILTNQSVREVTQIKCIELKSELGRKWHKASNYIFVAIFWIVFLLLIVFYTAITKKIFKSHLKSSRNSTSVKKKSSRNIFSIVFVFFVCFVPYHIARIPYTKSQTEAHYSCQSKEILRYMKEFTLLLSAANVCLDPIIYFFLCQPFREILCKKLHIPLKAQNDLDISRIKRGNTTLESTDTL

[28] = target: T6, P2Y purinoceptor 14 (Rattus norvegicus, UniProt O35881); assay: Antagonist activity at rat P2Y14
T6 sequence (O35881 whole entry): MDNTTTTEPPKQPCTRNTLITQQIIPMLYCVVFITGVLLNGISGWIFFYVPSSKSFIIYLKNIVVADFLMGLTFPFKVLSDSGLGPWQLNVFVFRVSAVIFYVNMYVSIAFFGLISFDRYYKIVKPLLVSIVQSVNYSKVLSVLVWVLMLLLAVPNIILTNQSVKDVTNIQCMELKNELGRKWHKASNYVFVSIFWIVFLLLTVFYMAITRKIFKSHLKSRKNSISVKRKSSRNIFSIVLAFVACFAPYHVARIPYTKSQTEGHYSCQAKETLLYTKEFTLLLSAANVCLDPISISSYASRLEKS

[29] = target: T4, P2Y purinoceptor 4; assay: Agonist activity at human P2Y4 transfected in human 1321N1 cells; format: cell-based
[30] = target: P2Y purinoceptor 6 (Homo sapiens, UniProt Q15077); assay: Antagonist activity at human P2Y6
Sequence of P2Y purinoceptor 6 (Q15077 whole entry): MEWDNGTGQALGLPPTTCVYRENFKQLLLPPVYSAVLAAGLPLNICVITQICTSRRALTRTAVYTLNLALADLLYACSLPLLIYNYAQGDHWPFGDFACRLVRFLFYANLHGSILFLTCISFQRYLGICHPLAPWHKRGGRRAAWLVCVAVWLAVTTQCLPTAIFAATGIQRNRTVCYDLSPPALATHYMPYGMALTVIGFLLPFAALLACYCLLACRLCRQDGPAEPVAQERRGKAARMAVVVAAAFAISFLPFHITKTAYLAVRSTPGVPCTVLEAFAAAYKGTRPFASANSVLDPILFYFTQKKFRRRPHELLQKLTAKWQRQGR

[31] = Clearance in rat at 30 mg/kg, po; format: ADME, organism-based; details: in vivo
[32] = Volume of distribution at steady state in rat at 30 mg/kg, PO; format: ADME, organism-based; details: in vivo
[33] = Half life in rat 1 mg/kg, iv; format: ADME, organism-based; details: in vivo
[34] = Half life in rat 30 mg/kg, po; format: ADME, organism-based; details: in vivo

T1 sequence (P47900 whole entry): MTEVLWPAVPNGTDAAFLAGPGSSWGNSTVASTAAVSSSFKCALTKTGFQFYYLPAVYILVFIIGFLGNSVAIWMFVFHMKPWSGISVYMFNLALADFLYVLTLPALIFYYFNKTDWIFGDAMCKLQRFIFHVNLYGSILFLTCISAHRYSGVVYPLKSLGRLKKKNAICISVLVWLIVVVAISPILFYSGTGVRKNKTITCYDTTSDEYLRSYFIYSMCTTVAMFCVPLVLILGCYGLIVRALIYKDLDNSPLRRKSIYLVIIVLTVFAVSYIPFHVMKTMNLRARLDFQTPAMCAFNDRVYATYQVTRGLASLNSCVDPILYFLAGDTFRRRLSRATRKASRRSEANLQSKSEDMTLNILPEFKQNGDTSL

In the case of CCc1ccccc1-n1nc(C)cc1Oc1ccccc1NC(=O)Nc1ccc(OC(F)(F)F)cc1, the Ki [1] is reported as 70 nM.
In the case of Cc1ccc2c(c1)C=Cc1cc(C)ccc1C2c1cn(Cc2ccc(C(=O)Nc3nnn[nH]3)o2)c(=O)[nH]c1=S, the IC50 [2] is reported as 1000 nM.
In the case of O=C(O)c1cc(-c2ccc(C3CCNCC3)cc2)c2ccc(-c3ccc(C(F)(F)F)cc3)cc2c1 [PPTN], the Ki [3] is reported as 1.9 nM, the Cmax [4] is reported as 680 nM and the Cmax [5] is reported as 2280 nM. It also gave a bioavailability [6] of 5% and a bioavailability [7] of 5%.
Work on CCCCNc1nc(SCCC)nc2c1ncn2[C@@H]1O[C@H](/C=C/C(=O)N[C@@H](CC(=O)O)C(=O)O)[C@@H](O)[C@H]1O yielded a pIC50 [8] of 7.
Nc1c(S(=O)(=O)O)cc(Nc2ccc(Nc3nc(Cl)nc(Nc4cccc(S(=O)(=O)O)c4)n3)c(S(=O)(=O)O)c2)c2c1C(=O)c1ccccc1C2=O [RB 2] gave an IC50 [9] of 1900 nM.
Molecule CCCSc1nc(N[C@@H]2C[C@H]2c2ccccc2)c2nnn([C@@H]3C[C@H](c4nnn[nH]4)[C@@H](O)[C@H]3O)c2n1 has a Ki [10] of 2 nM.
CCCCNc1nc(SCCC)nc2c1nnn2[C@@H]1C[C@H](/C=C/C(=O)N[C@@H](CC(=O)O)C(=O)O)[C@@H](O)[C@H]1O gave a pIC50 [8] of 9.3.
For Cc1cc(F)cc(C)c1COc1ccc2c(-c3ccsc3)cc(C(=O)O)cc2c1, the half-life [11] was 2.7 h, the half-life [12] was 2.7 h and the bioavailability [13] was 12%.
O=C(O)c1cc(-c2ccccc2)c2ccc(OCc3ccccc3)cc2c1 showed an IC50 [14] of 3500 nM.
CNc1nc(Cl)nc2c1ncn2CCC(COP(=O)(O)O)COP(=O)(O)O showed an IC50 [15] of 840 nM.
For CCOC(=O)N1CCN(C(=O)[C@H](CCC(=O)O)NC(=O)c2cc(OC(C)(C)C(=O)OCC)c3ccc(C)cc3n2)CC1, the IC50 [16] was 130 nM.
Molecule Cc1nc(/N=N/c2cc([N+](=O)[O-])ccc2Cl)c(COP(=O)(O)O)c(C=O)c1O has an IC50 [17] of 1070 nM.
Molecule Nc1ncnc2c1ncn2[C@H]1C[C@H](OP(=O)(O)O)[C@@H](COP(=O)(O)O)O1 has an EC50 [15] of 6300 nM and an IC50 [15] of 5800 nM.
Nc1ncnc2c1ncn2[C@@H]1O[C@H](COP(=O)(O)OP(=O)(O)OP(=O)(O)O)[C@@H](O)[C@H]1O [ADENOSINE TRIPHOSPHATE] gave an EC50 [18] of 6200 nM and an EC50 [19] of 1170 nM.
With CC(C)(C)CN1CCC2(CC1)CN(c1ccccc1NC(=O)Nc1nc3ccc(Cl)nc3s1)c1c(O)cc(F)c(-c3ccc(F)cc3)c12 the clearance [20] was 4 mL/min/kg, the Vd ([21]; read-out: Vdss) was 2.1 L/kg and the bioavailability [7] was 30%. For the same molecule, the IC50 [22] was 180 nM.
Work on COc1ccc(-c2cc(=O)c3c(OC)c(OC)c(OC)c(OC)c3o2)cc1 [TANGERETIN] yielded an IC50 [23] of 12000 nM.
For Cc1ccc(C(=O)Nc2ccc(S(=O)(=O)O)c3cc(S(=O)(=O)O)cc(S(=O)(=O)O)c23)cc1NC(=O)c1cccc(NC(=O)Nc2cccc(C(=O)Nc3cc(C(=O)Nc4ccc(S(=O)(=O)O)c5cc(S(=O)(=O)O)cc(S(=O)(=O)O)c45)ccc3C)c2)c1 [SURAMIN HEXASODIUM], the IC50 [9] was 2300 nM.
With Cc1nc(/N=N/c2ccc(Cl)c([N+](=O)[O-])c2)c(COP(=O)(O)O)c(C=O)c1O the IC50 [17] was 661 nM.
With Nc1ncnc2c1ncn2[C@@H]1O[C@H](COP(=O)(O)OP(=O)(O)O)[C@@H](O)[C@H]1O the Activity [24] was 34% and the Activity [25] was 15%.
CNc1ncnc2c1ncn2[C@H]1C[C@H](OP(=O)(O)O)[C@@H](COP(=O)(O)O)O1 showed an IC50 [26] of 330 nM.
For CC(=O)c1cc(C(=O)NCCCCCCn2cc(CCCCN3CCC(c4ccc(-c5cc(C(=O)O)cc6cc(-c7ccc(C(F)(F)F)cc7)ccc56)cc4)CC3)nn2)ccc1-c1c2ccc(=N)c(S(=O)(=O)O)c-2oc2c(S(=O)(=O)O)c(N)ccc12, the Ki [27] was 0.08 nM.
With Cc1cc(Oc2ccccc2NC(=O)Nc2ccc(OC(F)(F)F)cc2)n(-c2ccccc2Cl)n1 the clearance [20] was 81 mL/min/kg and the Vdss [21] was 15.7 L/kg.
CCOC(=O)N1CCN(C(=O)[C@H](CCC(=O)O)NC(=O)c2cc(OC(C)(C)C(=O)O)c3ccc(C)cc3n2)CC1 showed an IC50 [16] of 8.3 nM.
With Cc1cc(Oc2ccccc2NC(=O)Nc2ccc(C3CCS(=O)(=O)CC3)cc2)n(-c2ccccc2Cl)n1 the Ki [1] was greater than 10000 nM.
Work on Cc1nc(/N=N/c2ccc(S(=O)(=O)O)cc2S(=O)(=O)O)c(COP(=O)(O)O)c(C=O)c1O yielded an IC50 [9] of 11600 nM.
Work on O=c1ccn([C@@H]2O[C@H](COP(=O)(O)OP(=O)(O)O)[C@@H](O)[C@H]2O)c(=O)[nH]1 [URIDINE_DIPHOSPHATE] yielded an EC50 [28] of 350 nM.
Molecule CCCCNc1nc(SCCC)nc2c1nnn2[C@@H]1O[C@H](/C=C/C(=O)N[C@@H](CC(=O)O)C(=O)O)[C@@H](O)[C@H]1O has a pIC50 [8] of 9.5.
In the case of O=c1ccn([C@@H]2O[C@H](COP(=O)(O)OP(=O)(O)OP(=O)(O)O)[C@@H](O)[C@H]2O)c(=O)[nH]1 [URIDINE TRIPHOSPHATE], the EC50 [29] is reported as 550 nM.
S=C=Nc1ccc(CCc2ccc(N=C=S)cc2)cc1 showed an IC50 [30] of 100 nM.
For S=C=Nc1cccc(NC(=S)NCCCCNC(=S)Nc2cccc(N=C=S)c2)c1, the IC50 [30] was 37 nM.
CC(C)(C)c1ccccc1Oc1ncccc1NC(=O)Nc1ccc(OC(F)(F)F)cc1 gave a CL/F [31] of 13 mL/min/kg, a Vdss [32] of 0.8 L/kg and a half-life [33] of 15.4 h. The half-life [34] was 1.4 h.
